Experimental data: patent US9340563B2, “Salts of isophosphoramide mustard and analogs thereof” (priority 2007, dated 2016)
Converted amounts (≈) assume the structure as drawn. Like-named read-outs stand apart in the source and are kept apart here.

Tests used:
[1] = test system: MX-1 human mammary tumors; test: MX-1 human mammary tumor xenograft (Example 7); assay type: in vivo, athymic NCr-nu/nu mice
Protocol: Each concentration was then aliquoted for daily use, frozen, stored at −20° C., and thawed for daily use.
The control groups were treated either ip or po with the vehicle (saline).
Study Duration: The study was terminated 50 days after tumor implantation.

[2] = test system: MX-1 human mammary tumor; test: MX-1 human mammary tumor xenograft (Example 8)
Description: Animal Care: Five-weeks-old female athymic NCr-nu/nu mice were purchased from Harlan (Prattville, Ala.).
Tumor Model: Thirty-to-forty mg fragments of MX-1 human mammary tumor maintained in an in vivo passage were implanted sc in mice in the mammary fat pad using a 12-gauge trocar needle and allowed to grow. The day of tumor implantation was designated as day 0. […] A sufficient number of mice were implanted so that tumors in a weight range as narrow as possible were selected for the trial on the day of treatment initiation (day 6 after tumor implantation). Those animals selected with tumors in the proper size range were assigned to the various treatment groups so that the median tumor weights on the first day of treatment were as close to each other as possible (144-162 mg).
All dosing solutions were kept on ice after formulation and were administered within 30 min. All injections were administered on the basis of exact body weight with the injection volume being 0.2 mL/10 g body weight.
Drug Treatment: The experiment consisted of 16 treatment groups of eight mice per group and two vehicle-treated control groups with ten mice each for a total of 148 mice on the first day of treatment. All agents (and vehicle) were administered daily for five consecutive days (q1d×5). […] The control groups were treated either ip (group no. 1) or po (group no. 10) with the vehicle (saline).
Tumor Measurements and Body Weights: The sc tumors were measured and the animals were weighed twice weekly starting with the first day of treatment. Tumor volume was determined by caliper measurements (mm) and using the formula for an ellipsoid sphere: L×W^2/2=mm^3, where L and W refer to the larger and smaller perpendicular dimensions collected at each measurement. This formula is also used to calculate tumor weight, assuming unit density (1 mm^3=1 mg.).
Study Duration: The study was terminated 52 days after tumor implantation. Any animal that became moribund or whose tumor became ulcerated and reached 4,000 mg was euthanized prior to study termination.
Parameters Evaluated: Number of nonspecific deaths, number of partial and complete tumor regressions, number of tumor-free survivors, and the individual animals' times to reach two tumor mass doublings were determined. The median time to reach two tumor mass doubling in the treatment groups (T) and control group (C) was used in the calculation of the overall delay in the growth of the median tumor (T-C).
Statistical Analysis: The individual animal's time to reach two tumor mass doublings was used as the endpoint in a Student's t-test/Mann Whitney rank sum test in order to compare statistically the growth data between groups.

[3] = assay type: physicochemical; settings: temperature and duration of storage
[4] = Solubility and reconstitution time (Example 16); assay type: physicochemical
[5] = assay type: physicochemical; settings: pH 7 buffer, approximately 25° C.
[6] = pH (Example 16); assay type: physicochemical
[7] = test system: CPA-resistant human sarcoma cells (OS31 osteosarcoma); settings: mice with xenografts of CPA-resistant human sarcoma cells
Description: CB17 female scid*/* mice (Taconic Farms, Germantown, N.Y.) were implanted with tumor subcutaneous flank tumors. […] For transplantation with OS1 tumor, mice were anesthetized with 4% isoflurane. After a small incision was made in the flank of the mouse, and a 4 mm by 4 mm section of tumor implanted subcutaneously.
When the tumors were approximately 0.20 to 0.7 cm in diameter, tumor-bearing mice were randomized into groups of 5 to 8 mice with 1 treatment group and 1 control group. Treated mice received tasidotin at a dose of 90 mg/kg/day as an intraperitoneal injection daily for 5 days starting on days 1 and 21. Assuming a spherical tumor, the volume was determined by the formula: mm^3=*/6(D)d^2, where D is the maximal diameter and d is the diameter perpendicular to D. Volumes are expressed as relative tumor volumes (RTV) where the tumor volume at any given time point is divided by the starting tumor volume. The RTV for treated and control mice were measured a minimum of once per week.
A partial response is defined as greater than 50% regression in tumor volume (RTV<0.5) but with a measurable tumor mass of greater than 0.10 cm^3. Loss of measurable tumor mass (<0.10 cm^3) at any point during the treatment period (6 weeks) was defined as a complete response (CR). […]

O=P(O)(NCCCl)NCCCl [IPM, isophosphoramide mustard]
maximum loss in mean body weight ([1]; ip q1d×5, 24 mg/kg/dose): 5% | tumor growth delay (T-C) ([1]; ip q1d×5, 24 mg/kg/dose): 2.6 days | maximum loss in mean body weight ([1]; ip q1d×5, 36 mg/kg/dose): 0% | maximum loss in mean body weight ([1]; po q1d×5, 81 mg/kg/dose): 5% | tumor growth delay (T-C) ([1]; po q1d×5, 81 mg/kg/dose): 4.0 days | maximum loss in mean body weight ([1]; po q1d×5, 120 mg/kg/dose): 5% | tumor growth delay (T-C) ([1]; po q1d×5, 120 mg/kg/dose): 4.6 days | maximum loss in mean body weight ([2]; ip q1d×5, 24 mg/kg/dose): 2% | tumor growth delay (T-C) ([2]; ip q1d×5, 24 mg/kg/dose): 0.3 days | maximum loss in mean body weight ([2]; ip q1d×5, 36 mg/kg/dose): 8% | maximum loss in mean body weight ([2]; po q1d×5, 81 mg/kg/dose): 9% | tumor growth delay (T-C) ([2]; po q1d×5, 81 mg/kg/dose): 2.3 days | maximum loss in mean body weight ([2]; po q1d×5, 120 mg/kg/dose): 18% | tolerability ([2]; po q1d×5, 120 mg/kg/dose): toxic | deaths ([2]; po q1d×5, 120 mg/kg/dose, eight mice per group): two deaths | Current Stability Data Summary: No change in purity at [3]: −70° C., 2 years | Solubility at 25° C. (saline) [4]: 14 mg/mL (≈ 63.3 mM) | % Purity ([5]; 0.5 hours): 89.5% | % Purity ([5]; 1.0 hours): 80.3% | % Purity ([5]; 2.0 hours): 64.8% | % Purity ([5]; 3.0 hours): 52.1% | % Purity ([5]; reconstitution time 0 hours): 100.00% | pH [6]: 3.02

O=P1(N(CCCl)CCCl)NCCCO1 (stereo not drawn) [CPA, cyclophosphamide]
effect of therapy on sarcoma growth [7]: no effect
